Data published in patent US11911521B2, “Antibacterial nanofiber” (UNIVERSITY OF MANITOBA, priority 2017, dated 2024).

Key:
Assay type in all cases: cell-based
[1] = tested on: Escherichia coli (E-coli—ATCC 25922); test: Antibacterial test by colony counting method, E. coli; settings: for logarithm reduction of bacteria / percentage reduction of bacteria: E. coli ~8 Log CFU/mL
Experimental: (§1) The antibacterial activity of the nanofiber mats was tested by colony counting method against Staphylococcus aureus (S. aureus) and E. coli, which are commonly found on burn wounds. For the antibacterial studies, logarithmic-phase cultures were prepared by initially suspending several colonies in phosphate buffered saline (PBS, 0.1 M, pH 7.4) at a density equivalent to a 0.5 McFarland standard of 1×10^8 colony forming units (CFU) mL^−1 and then diluted 100 times to 1×10^6 CFU mL^−1. 15 μL of the diluted E-coli and S. aureus suspension was further diluted into 45 mL cation-supplemented MuellerHinton (MH) broth and TSB, respectively. After culturing in the incubator at 37° C. for overnight, the concentration of bacteria went up to 10^8 CFU mL^−1. 2 mL of bacteria suspension was added to 4 mg of nanofibers and incubated. At the predetermined contact times, 150 μL of bacteria culture was taken from the flask, neutralized, and decimal serial dilutions with PBS were repeated with each initial sample. 30 μL of the diluted sample was then spread onto four zones of a Tryptone Soya agar plate (CM 0131, OXOID). After incubation of the plates at 37° C. for 18 h, the number of viable bacteria (colonies) was counted manually for control (A, bacteria suspension without sample) and BTAC-loaded nanofibers (B). Bacteria reduction was reported as percentage and Log 10. The percentage reduction of bacteria (%)=(A−B)/A×100; and logarithm reduction=log(A/B).

[2] = tested on: Staphylococcus aureus (S. aureus—ATCC 29213); test: Antibacterial test by colony counting method, S. aureus; settings: for logarithm reduction of bacteria / percentage reduction of bacteria: S. aureus ~8 Log CFU/mL
Experimental: as §1

[3] = tested on: ATCC-PCS-201 neonatal human dermal fibroblast; test: In vitro cytotoxicity assay (MTT) on fibroblast cells; settings: after 24 h of contact, free BTAC at 34 mg/L
Experimental: An in vitro cytotoxicity assay was conducted on fibroblast cells (ATCC-PCS-201 neonatal human dermal fibroblast) to evaluate the effect of drug-loaded nanofibers. Nanofibers were cut in to the same shape and weighted to 4 mg (triplicate). They were pre-soaked in 1 mL of ethanol for 10 min. Samples were exposed to UV light for 45 min (each side). Fibroblast cells were cultured in 24 well-plates at density of 1×10^5 (cell/mL). After reaching to 90% confluence, 2 mL of fibroblast culture medium was added to each of the wells and the dressings. Afterwards, the cells were incubated at 37° C. for 24 h. Cell viability was determined using MTT assay after removal of dressings. Each well received 500 μL of 1:10 (v/v) MTT and fibroblast medium solution. Subsequently, after 2 h incubation at 37° C., the culture medium with the MTT solution were aspirated and replaced by 500 μL DMSO. Finally, 100 μL aliquots from each well (in triplicate) were transferred to 96-well plates and viability of cells was evaluated using spectrophotometer at 570 nm wavelength (PowerWave™ XS2 Microplate Spectrophotometer, BioTek Instruments Inc., Canada).

CCCCCCCCCCCCCC[N+](C)(C)Cc1ccccc1 [BTAC, benzyl dimethyl tetradecyl ammonium chloride]
logarithm reduction of bacteria ([1]; contact time 5 min): 1.3 ± 0.0 Log10 | percentage reduction of bacteria ([1]; contact time 5 min): 95.3 ± 0.3% | logarithm reduction of bacteria ([1]; contact time 10 min): 1.4 ± 0.1 Log10 | percentage reduction of bacteria ([1]; contact time 10 min): 96.0 ± 0.2% | logarithm reduction of bacteria ([1]; contact time 20 min): 1.9 ± 0.1 Log10 | percentage reduction of bacteria ([1]; contact time 20 min): 98.8 ± 0.5% | logarithm reduction of bacteria ([1]; contact time 30 min): 8.9 Log10 | percentage reduction of bacteria ([1]; contact time 30 min): 100.0% | time to 100% bacteria inhibition ([1]; against E. coli): < 60 min | logarithm reduction of bacteria ([2]; contact time 5 min): 1.4 ± 0.2 Log10 | percentage reduction of bacteria ([2]; contact time 5 min): 96.1 ± 0.2% | logarithm reduction of bacteria ([2]; contact time 10 min): 1.8 ± 0.3 Log10 | percentage reduction of bacteria ([2]; contact time 10 min): 98.5 ± 0.9% | logarithm reduction of bacteria ([2]; contact time 20 min): 8.9 Log10 | percentage reduction of bacteria ([2]; contact time 20 min): 100.0% | time to 100% bacteria inhibition ([2]; against S. aureus): < 60 min | fibroblast cell viability [3]: 55.2±4.0
